Results on 1 molecule are retold here after patent US6410054B1, “Immediate release eplerenone compositions” (G. D. Searle & Co., priority 1998, dated 2002).

Series [1] in a line: Multiple dose study: plasma pharmacokinetics and urinary excretion. It is filed as in vivo, humans. How it is done:
Multiple oral dose tolerability and the pharmacokinetics of several dosages of eplerenone were evaluated in a double-blind, randomized, placebo-controlled, rising oral dose, sequential panel study of 40 healthy male subjects (five groups of eight subjects). The study medication was administered in […] sequential dose panels, with each panel including eplerenone, spironolactone and placebo. […] The 100 mg and 200 mg dose capsules corresponded to those described in Examples 7 and 8, respectively. Following a 48-hour interval, the study drug was administered once a day for 11 days. Antialdosterone activity was determined following a fludrocortisone challenge on Days 12-13.

A short description of series [2]: Single dose study: plasma pharmacokinetics of eplerenone, open lactone ring form, spironolactone. The note with it: open ring lactone in plasma. On the procedure:
The pharmacokinetics, safety and antialdosterone activity of single 10, 50, 100, 300 and 1000 mg oral doses of eplerenone were evaluated in a single-center, randomized, double-blind, placebo-controlled study.
The study employed seven parallel dose groups of eight healthy male humans.
The eplerenone capsules administered corresponded to the capsules (or combinations of the capsules) disclosed in Examples 4, 5, 7 and 8 above. The placebo was a conventional capsule containing lactose. […] The fludrocortisone used in the study consisted of commercially available fludrocortisone tablets (Florinef®, Squibb BV).
The subjects, who underwent a ten hour food fast prior to administration of the dose, received a single oral dose of one of the study medications together with about 180 mL of water at 0800 hours. […] Each dose of fludrocortisone was administered with 150 mL of water except for the 1.0 mg dose which was administered with 200 mL of water.
The plasma samples collected from subjects dosed with eplerenone were assayed for concentrations of eplerenone and the open lactone ring form of eplerenone. […] A subset of plasma samples was also assayed for testosterone levels. The urine collected was analyzed to determine concentrations and amounts of eplerenone and the open lactone ring form of eplerenone, the amount of sodium and potassium excreted, and the urinary log10 (sodium/potassium) ratio.

Regarding `COC(=O)C1CC2=CC(=O)CCC2(C)C23OC2CC2(C)C(CCC2(O)CCC(=O)O)C13` (stereo not shown) [Open Ring Lactone], the “dose proportionality of plasma concentrations and dose-adjusted AUC” value in series [1] (100 mg to 1000 mg, single or multiple doses) is given as “consistent with dose proportionality”. Further, the accumulation result in series [1] (once a day for 11 days) is “no significant or dose-related accumulation”. In series [2] (50 mg Epl. single oral dose), the “AUC(0-96)” value was 142.8 (ng/mL) hr, the “Mean Residence Time” value was 2.8 h, the “Oral Clearance” value amounted to 491.3 L/h and the T1/2 was 2.7 h. Moreover, the time of peak concentration (Tmax) (usually the time at which the peak concentration occurs) in series [2] (50 mg Epl. single oral dose) amounted to 1.0 h. In series [2] (100 mg Epl. single oral dose), the “AUC(0-96)” value is reported as 246.8 (ng/mL) hr, the “Mean Residence Time” value was 3.3 h, the “Oral Clearance” value turned out to be 445.2 L/h and the T1/2 amounted to 2.7 h. In series [2] (100 mg Epl. single oral dose), the Tmax came out at 1.1 h. In addition, in series [2] (300 mg Epl. single oral dose), the “AUC(0-96)” value is 1065.1 (ng/mL) hr, the “Mean Residence Time” value came to 4.2 h, the “Oral Clearance” value came out at 299.8 L/h and the T1/2 stood at 2.8 h. For the same molecule, in series [2] (300 mg Epl. single oral dose), the Tmax is 1.3 h. Also, in series [2] (1000 mg Epl. single oral dose), the “AUC(0-96)” value is 3483.5 (ng/mL) hr, the “Mean Residence Time” value stood at 5.7 h, the “Oral Clearance” value came out at 330.7 L/h and the T1/2 was 2.6 h. For the same molecule, in series [2] (1000 mg Epl. single oral dose), the Tmax came to 2.5 h.
